Reference: patent publication US20080051451A1, “Autoimmune conditions and NADPH oxidase defects” (priority 2006, published 2008)

Columns and labels:
[1] = Biodistribution of 3H-labelled phytol; assay type: in vivo, Rat (Rattus norvegicus)
Protocol: DA rats originating from Harlan Netherlands (N=4 rats per group) injected with compound 1 (phytol) mixed with radiolabelled compound 1 (phytol) (Moravek Biochemicals, CA) to a total volume of […] at 167 μCi/rat with ^3H-Phytol. At sacrifice at day 2, 4, 8, 11 and 17, respectively, inguinal lymph nodes, spleen, heart, thymus, kidney, liver, lung, adipose tissue, muscle, injection site tissue and blood were collected in equal amount of saline solution in pre-weight tubes (blood with heparin to prevent coagulation). The tissues were homogenized and mixed with ready-safe scintillation liquid (Beckman Coulter, CA). Biodistribution was estimated as relative CPM per gram tissue.

[2] = system: Rats heterozygous for the functional Ncf1 (Ncf1^E3) allele with Pia3 locus; experiment: Pristane induced arthritis (PIA) in rats with a functional oxidative burst; details: injected i.p. (200 μl) at the estimated peak of disease
Protocol: Disease was induced in all rats at the age of 6-12 weeks. Arthritis development was monitored with a macroscopic scoring system of the four limbs ranging from 0 to 15 (1 point for each swollen or red toe, 1 point for midfoot digit or knuckle, 5 points for a swollen ankle). The scores of the four paws were added yielding a maximum total score of 60 for each rat.
Therapeutic treatments were administered s.c. or intra peritoneal (i.p.; 200 μl) after onset of disease in the acute or chronic phase (FIG. 6).

[3] = relative CPM per gram tissue, day 2, 4, 8, 11, 17

SMILES: C/C(=C\CO)CCCC(C)CCCC(C)CCCC(C)C (stereo not drawn) [compound 1, 3,7,11,15-Tetramethyl-2-hexadecen-1-ol]
- fraction remaining as a depot in the injection site ([1]; DA rats, 3H-Phytol injection): > 90%
- cellular localisation of staining in lymph nodes ([1]; rat, in vivo): in-between cells or in the cell membrane, i.e. not intracellular
- distribution within the draining lymph nodes ([1]; rat, in vivo): distributed primarily to the cortical regions as well as close to the sinusoidal space of the draining lymph nodes
- primary tissue for accumulation [1, 3]: draining lymph nodes were the primary tissue for accumulation
- time course of distribution to the inguinal lymph nodes [1, 3]: highest accumulation more than one week after injection and showed a decrease after two weeks
- severity of arthritis in rats with a functional oxidative burst [2]: arthritis ameliorating effect
